Assays:
[1] = test system: Plasmodium falciparum 3D7 (drug sensitive) strain; experiment: Growth inhibition of P. falciparum 3D7 in erythrocytic co-culture; format: cell-based; details: 3D7, read-out: EC50 3D7
[2] = test system: Plasmodium falciparum K1 (drug resistant) strain; experiment: Growth inhibition of P. falciparum K1 in erythrocytic co-culture; format: cell-based; details: K1, read-out: EC50 K1

EC50 [1]: ≤ 100 nM
EC50 [2]: ≤ 100 nM
SMILES: O=C(CCc1ccccc1)c1ccccc1OCC(O)CN1CCN(C(c2ccccc2)c2ccccc2)CC1 (centres unmarked) [Compound 6z]
